The text below walks through data of patent US20170190705A1, “Compositions and Methods for Inhibiting BMP” (THE BRIGHAM AND WOMAN'S HOSPITAL, INC., priority 2014, published 2017).

The target in one experiment is ALK6 (Homo sapiens, UniProt O00238). The experiment can be described thus: Kinome profiling ALK6. In kind it is biochemical. The settings on record: Table 4, read-out: Inhibitory Activity ALK6. The protocol: (§1) . The kinome-wide selectivity was determined following the methods previously reported by Mohedas et al., ACS Chem Biol 2013, 8, 1291-1302 and Sanvitale et al., PLoS One 2013, 8, e62721.

The next experiment addresses TNIK (Homo sapiens, UniProt Q9UKE5). Briefly: Kinome profiling TNIK. The conditions noted are these: Table 4, read-out: Inhibitory Activity TNIK. In kind it is biochemical. The protocol: as §1
A further experiment deals with BMP6. Briefly: Ligand induced transcriptional activity assay BMP6 (BRE-Luc). In kind it is cell-based.
The next experiment addresses T1, TXK (Homo sapiens, UniProt P42681).
T1 sequence (P42681 1-527): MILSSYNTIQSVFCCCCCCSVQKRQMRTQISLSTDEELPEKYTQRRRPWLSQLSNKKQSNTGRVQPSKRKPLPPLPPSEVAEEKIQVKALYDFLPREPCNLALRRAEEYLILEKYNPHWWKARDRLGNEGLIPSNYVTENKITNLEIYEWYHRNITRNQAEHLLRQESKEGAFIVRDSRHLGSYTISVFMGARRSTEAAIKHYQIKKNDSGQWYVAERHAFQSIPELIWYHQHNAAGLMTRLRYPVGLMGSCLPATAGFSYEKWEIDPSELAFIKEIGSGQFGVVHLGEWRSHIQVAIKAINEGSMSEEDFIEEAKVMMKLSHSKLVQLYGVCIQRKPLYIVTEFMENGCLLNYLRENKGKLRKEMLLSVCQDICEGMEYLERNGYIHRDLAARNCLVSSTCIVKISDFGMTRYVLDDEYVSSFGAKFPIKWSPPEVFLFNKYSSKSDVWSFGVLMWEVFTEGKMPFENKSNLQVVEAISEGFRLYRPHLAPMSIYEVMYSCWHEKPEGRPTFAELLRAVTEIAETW
The experiment can be described thus: Kinome profiling TXK. In kind it is biochemical. The conditions noted are these: read-out: Inhibitory activity TXK; for inhibition at 0.1 µM: 100 nM. The protocol:
as §1

The target of a further experiment is RIPK2 (Homo sapiens, UniProt O43353). The experiment can be described thus: Kinome profiling RIPK2. The conditions noted are these: Table 4, read-out: Inhibitory Activity RIPK2. The class given is biochemical. As for the experimental part: as §1
A further experiment addresses MAP4K5 (Homo sapiens, UniProt Q9Y4K4). The experiment can be described thus: Kinome profiling MAP4K5. In kind it is biochemical. The settings on record: Table 4, read-out: Inhibitory Activity MAP4K5. As for the experimental part: as §1
The next experiment addresses ALK2 (Homo sapiens, UniProt Q04771). The experiment can be described thus: Kinome profiling ALK2. The class given is biochemical. The conditions noted are these: Table 4, read-out: Inhibitory Activity ALK2. The protocol: as §1
The target in a further experiment is T2, TSSK1 (Homo sapiens, UniProt Q9BXA7).
T2 sequence (Q9BXA7 1-367): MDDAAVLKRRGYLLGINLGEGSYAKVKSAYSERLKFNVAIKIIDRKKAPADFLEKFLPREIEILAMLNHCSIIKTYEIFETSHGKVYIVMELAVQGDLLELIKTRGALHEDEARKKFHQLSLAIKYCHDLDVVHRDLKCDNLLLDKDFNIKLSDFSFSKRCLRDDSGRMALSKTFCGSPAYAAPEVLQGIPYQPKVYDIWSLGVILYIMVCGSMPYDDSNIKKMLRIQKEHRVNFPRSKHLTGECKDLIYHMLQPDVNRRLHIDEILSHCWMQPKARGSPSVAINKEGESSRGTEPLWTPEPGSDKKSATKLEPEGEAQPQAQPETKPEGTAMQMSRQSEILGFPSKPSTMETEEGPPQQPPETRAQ
Briefly: Kinome profiling TSSK1. In kind it is biochemical. The settings on record: read-out: Inhibitory activity TSSK1; for inhibition at 0.1 µM: 100 nM. The protocol:
as §1

Another experiment deals with T3, caALK1 (Homo sapiens, UniProt P37023, Q201D).
T3 construct: expressed in transfected cells; host or cells: C2C12 BRE-Luc cells infected with adenovirus (MOI 100)
The experiment can be described thus: Luciferase reporter assay constitutively active ALK1. The conditions noted are these: read-out: Cell Based Assay caALK1 IC50. The protocol: The cells were incubated for 1 h (37° C. and 10% CO2) and allowed to settle and attach. Compounds of interest or DMSO were diluted in DMEM and added at final compound concentrations of 1 nM to 10 μM. Cells were then incubated for 30 min. Adenovirus expressing constitutively active BMP and TGF-β type I receptors (Ad.caALK1-5), generously provided by Dr. Akiko Hata (University of to California at San Francisco), were added to achieve a multiplicity of infection (MOI) of 100. Plates were incubated overnight at 37° C. Cell viability was assayed with an MIT (3-(4,5-dimethylthiazol-2-yl)-2,5-diphenyl tetrazolium bromide) colorimetric assay (Promega) per the manufacturer's instructions. Media was discarded, and firefly luciferase activity was measured (Promega) according to manufacturer's protocol. Light output was measured using a Spectramax L luminometer (Molecular Devices) with an integration time of one second per well. Data was normalized to 100% of incremental BRE-Luc activity due to adenoviruses specifying caALK1, 2, or 3, or the incremental CAGA-Luc activity due to adenoviruses specifying caALK4 or 5.

SMILES strings stand for the structures. Where two headings read alike, the source gives them in different places.

RIPK2, sequence (O43353 whole entry): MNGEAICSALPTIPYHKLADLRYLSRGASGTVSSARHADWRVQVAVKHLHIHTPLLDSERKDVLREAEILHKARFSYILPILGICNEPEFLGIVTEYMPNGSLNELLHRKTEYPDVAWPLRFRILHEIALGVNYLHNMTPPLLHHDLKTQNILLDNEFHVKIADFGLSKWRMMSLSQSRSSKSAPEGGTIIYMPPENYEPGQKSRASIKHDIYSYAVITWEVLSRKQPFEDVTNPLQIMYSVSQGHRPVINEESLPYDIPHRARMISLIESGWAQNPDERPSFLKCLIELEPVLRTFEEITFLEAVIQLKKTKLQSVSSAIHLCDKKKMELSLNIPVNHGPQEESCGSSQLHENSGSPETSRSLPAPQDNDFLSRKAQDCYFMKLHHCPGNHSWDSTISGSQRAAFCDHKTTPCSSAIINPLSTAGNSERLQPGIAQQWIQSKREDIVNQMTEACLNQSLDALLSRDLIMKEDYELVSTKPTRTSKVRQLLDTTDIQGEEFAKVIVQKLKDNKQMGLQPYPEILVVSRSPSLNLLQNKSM
MAP4K5, sequence (Q9Y4K4 whole entry): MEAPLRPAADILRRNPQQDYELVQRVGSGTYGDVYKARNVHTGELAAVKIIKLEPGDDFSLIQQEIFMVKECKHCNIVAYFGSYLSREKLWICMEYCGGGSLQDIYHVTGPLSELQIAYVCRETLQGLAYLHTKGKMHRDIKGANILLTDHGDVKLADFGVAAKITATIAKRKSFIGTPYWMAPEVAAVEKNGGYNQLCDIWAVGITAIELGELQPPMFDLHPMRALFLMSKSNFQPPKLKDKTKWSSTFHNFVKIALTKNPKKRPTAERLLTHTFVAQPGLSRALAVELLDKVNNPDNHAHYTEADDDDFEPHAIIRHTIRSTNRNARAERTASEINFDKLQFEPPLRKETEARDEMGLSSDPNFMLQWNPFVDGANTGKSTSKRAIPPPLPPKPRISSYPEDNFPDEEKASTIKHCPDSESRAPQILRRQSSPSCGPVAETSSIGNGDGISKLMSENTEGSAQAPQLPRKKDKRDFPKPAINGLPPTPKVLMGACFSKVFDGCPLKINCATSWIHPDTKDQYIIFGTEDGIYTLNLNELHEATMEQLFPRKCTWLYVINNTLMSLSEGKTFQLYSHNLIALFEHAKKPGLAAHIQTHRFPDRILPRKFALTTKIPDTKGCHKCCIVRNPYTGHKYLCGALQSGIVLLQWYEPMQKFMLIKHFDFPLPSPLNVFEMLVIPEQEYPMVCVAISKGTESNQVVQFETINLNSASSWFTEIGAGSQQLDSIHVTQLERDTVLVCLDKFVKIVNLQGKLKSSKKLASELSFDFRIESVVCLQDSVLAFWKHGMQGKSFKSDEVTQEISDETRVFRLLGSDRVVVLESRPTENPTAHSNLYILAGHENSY
TNIK, sequence (Q9UKE5 whole entry): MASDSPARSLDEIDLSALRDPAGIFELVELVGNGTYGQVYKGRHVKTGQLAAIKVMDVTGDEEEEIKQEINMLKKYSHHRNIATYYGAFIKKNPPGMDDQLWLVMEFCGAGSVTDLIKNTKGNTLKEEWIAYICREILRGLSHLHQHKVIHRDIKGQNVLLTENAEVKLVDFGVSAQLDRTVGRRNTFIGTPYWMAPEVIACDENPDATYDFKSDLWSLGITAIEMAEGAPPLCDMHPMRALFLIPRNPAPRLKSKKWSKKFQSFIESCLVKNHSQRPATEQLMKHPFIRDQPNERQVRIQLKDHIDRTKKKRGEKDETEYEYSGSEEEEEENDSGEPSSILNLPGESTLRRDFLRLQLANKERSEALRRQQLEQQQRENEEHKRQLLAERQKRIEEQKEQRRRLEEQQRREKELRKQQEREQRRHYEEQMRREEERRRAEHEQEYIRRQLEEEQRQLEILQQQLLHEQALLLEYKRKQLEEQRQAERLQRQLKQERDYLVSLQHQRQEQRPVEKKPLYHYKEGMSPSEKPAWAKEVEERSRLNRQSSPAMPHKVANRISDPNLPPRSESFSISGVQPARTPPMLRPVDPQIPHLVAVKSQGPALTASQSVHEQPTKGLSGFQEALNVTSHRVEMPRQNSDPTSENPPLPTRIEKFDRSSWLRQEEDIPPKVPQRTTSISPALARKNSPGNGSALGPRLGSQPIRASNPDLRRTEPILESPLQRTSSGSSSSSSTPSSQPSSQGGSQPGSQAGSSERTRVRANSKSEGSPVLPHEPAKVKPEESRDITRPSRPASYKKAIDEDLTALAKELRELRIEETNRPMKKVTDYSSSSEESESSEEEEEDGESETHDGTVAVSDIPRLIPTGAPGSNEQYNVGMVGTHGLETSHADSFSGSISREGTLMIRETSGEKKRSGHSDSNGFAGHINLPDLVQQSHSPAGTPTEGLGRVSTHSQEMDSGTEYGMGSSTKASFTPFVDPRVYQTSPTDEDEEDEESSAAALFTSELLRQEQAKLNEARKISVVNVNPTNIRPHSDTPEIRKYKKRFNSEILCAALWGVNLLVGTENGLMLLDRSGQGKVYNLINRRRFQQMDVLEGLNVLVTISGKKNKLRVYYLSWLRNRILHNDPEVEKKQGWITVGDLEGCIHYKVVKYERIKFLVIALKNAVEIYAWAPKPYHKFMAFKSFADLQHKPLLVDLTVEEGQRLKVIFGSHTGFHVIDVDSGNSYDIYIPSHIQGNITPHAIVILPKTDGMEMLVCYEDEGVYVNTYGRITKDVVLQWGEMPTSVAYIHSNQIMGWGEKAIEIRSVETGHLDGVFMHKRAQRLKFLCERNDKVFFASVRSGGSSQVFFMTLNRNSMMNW
ALK2, sequence (Q04771 21-509): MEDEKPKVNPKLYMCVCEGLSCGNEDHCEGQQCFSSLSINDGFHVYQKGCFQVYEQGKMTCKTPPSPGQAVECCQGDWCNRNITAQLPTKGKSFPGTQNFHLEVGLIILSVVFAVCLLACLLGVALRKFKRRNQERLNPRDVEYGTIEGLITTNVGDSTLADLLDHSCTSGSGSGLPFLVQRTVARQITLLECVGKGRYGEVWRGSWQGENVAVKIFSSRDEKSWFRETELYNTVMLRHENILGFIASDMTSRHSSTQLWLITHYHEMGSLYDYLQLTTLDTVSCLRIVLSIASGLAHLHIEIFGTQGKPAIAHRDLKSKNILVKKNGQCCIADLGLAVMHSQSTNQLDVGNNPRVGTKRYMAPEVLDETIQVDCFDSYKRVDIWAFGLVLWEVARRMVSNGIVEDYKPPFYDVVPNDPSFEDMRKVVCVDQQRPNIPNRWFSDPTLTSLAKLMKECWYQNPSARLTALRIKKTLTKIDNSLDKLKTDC
ALK6, sequence (O00238 14-502): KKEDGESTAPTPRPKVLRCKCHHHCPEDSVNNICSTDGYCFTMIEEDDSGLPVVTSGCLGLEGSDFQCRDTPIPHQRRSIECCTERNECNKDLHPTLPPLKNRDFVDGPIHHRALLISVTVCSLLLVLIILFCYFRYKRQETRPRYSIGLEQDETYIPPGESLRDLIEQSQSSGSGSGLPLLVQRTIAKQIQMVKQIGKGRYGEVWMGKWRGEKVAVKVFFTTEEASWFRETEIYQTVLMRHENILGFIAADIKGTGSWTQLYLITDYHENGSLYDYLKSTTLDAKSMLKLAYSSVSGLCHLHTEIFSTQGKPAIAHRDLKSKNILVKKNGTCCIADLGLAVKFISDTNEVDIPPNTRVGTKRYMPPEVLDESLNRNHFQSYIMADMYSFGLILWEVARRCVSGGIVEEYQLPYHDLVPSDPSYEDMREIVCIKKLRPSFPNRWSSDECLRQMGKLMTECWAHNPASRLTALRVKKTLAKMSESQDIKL
T3 sequence (P37023 22-503 Q201D): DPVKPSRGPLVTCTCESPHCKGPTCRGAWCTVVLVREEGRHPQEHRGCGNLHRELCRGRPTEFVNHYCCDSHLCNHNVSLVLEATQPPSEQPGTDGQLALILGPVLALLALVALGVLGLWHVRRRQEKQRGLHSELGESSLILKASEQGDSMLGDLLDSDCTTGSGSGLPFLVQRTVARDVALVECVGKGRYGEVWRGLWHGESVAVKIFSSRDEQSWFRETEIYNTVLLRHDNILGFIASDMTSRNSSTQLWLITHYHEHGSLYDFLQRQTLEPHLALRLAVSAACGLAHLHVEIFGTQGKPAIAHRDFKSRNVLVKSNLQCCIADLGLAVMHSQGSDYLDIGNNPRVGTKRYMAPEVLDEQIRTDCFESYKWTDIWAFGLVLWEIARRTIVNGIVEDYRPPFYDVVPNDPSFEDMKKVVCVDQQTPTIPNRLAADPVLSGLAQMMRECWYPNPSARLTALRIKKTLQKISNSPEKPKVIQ

Take `COc1cc(-c2cc(-c3ccc(N4CCNCC4)cc3)cnc2C)cc(OC)c1OC` [Compound 10, 1-(4-(6-methyl-5-(3,4,5-trimethoxyphenyl)pyridin-3-yl)phenyl)piperazine]: the inhibition at 0.1 µM on ALK6 (100 nM) turned out to be 11%; at TNIK (100 nM), 71%; at TXK it was 12%; on RIPK2 (100 nM), 71%; on MAP4K5 (100 nM), 43%; at ALK2 (100 nM), 67%. For the same compound, at TSSK1, the inhibition at 0.1 µM is 2%. The inhibition at 1 µM came out at 60% at ALK6 (1 μM); 98% on TNIK (1 μM); 14% at TXK; 97% at RIPK2 (1 μM); 86% on MAP4K5 (1 μM); 99% on ALK2 (1 μM). The inhibition at 1 µM at TSSK1 stood at 2%. The IC50 with BMP6 (Table 7, read-out: Ligand Induced BMP6 IC50) is 67 nM; in the experiment with BMP6 (cell-based signaling inhibition, read-out: BMP6 IC50) it was 100 ± 1 nM.
As for `COc1cc(-c2cc(-c3ccc(N4CCNCC4)cc3)cnc2N)cc(OC)c1OC` [Compound 15, 5-(4-(piperazin-1-yl)phenyl)-3-(3,4,5-trimethoxyphenyl)pyridin-2-amine], at TXK, the inhibition at 0.1 µM was 21% and the inhibition at 1 µM is 66%. For the same compound, on caALK1, the IC50 turned out to be 24 nM. Besides, at TSSK1, the inhibition at 0.1 µM was 1% and the inhibition at 1 µM came out at 5%.
